Data on one molecule can be found in patent US20130344501A1, “METHODS FOR PRODUCING THREE-DIMENSIONAL PHYSIOLOGICALLY RELEVANT IMMUNE TISSUE SYSTEMS UNDER LOW FLUID SHEAR CONDITIONS” (priority 2010, published 2013).

The test system of one test is ICAM-1 on U937 cells. The test can be described thus: ICAM-1 labeling of PMA-differentiated U937 macrophages, confocal laser scanning microscopy. Type of test: cell-based, human. The following applies: U937 monocytes exposed to 10^−8M PMA for 48 hours; monocytes alone stained weakly positive. As for the experimental part:
(§1) To obtain differentiated macrophages, U937 monocytes were exposed to 10^−8M PMA (originating from a 10^−3M stock in DMSO) (Sigma-Aldrich) for 48 hours. Exposure of monocytes to phorbol esters induces morphological, physiological and molecular characteristics of terminally differentiated macrophages (Rovera et al., 1979, Prieto et al., 1994). For CLSM staining purposes, monocytes were differentiated with PMA and A549 cells were grown in 6-well plates containing sterile coverslips. For CLSM staining of undifferentiated U937, cytodex-3 beads (5 mg/ml) were added to the culture medium, allowing adhesion of U937 to the beads and facilitation of the staining procedure.
The antibodies used for CLSM imaging in the present study were from mouse origin and targeted the human CD45 (Abcam), ICAM-1 (Abcam), MUC5AC (Invitrogen), ZO-1 (Invitrogen) and β-catenin (Chemicon). All primary antibodies were used in a dilution of 1:50. ICAM-1 was the only directly labeled antibody used for CLSM staining and was conjugated with phycoerythrin (PE). […]
Optical sections of the three-dimensional aggregates and monolayers were obtained using a Zeiss LSM 510 Duo laser scanning microscope equipped with detectors and filter sets for monitoring emissions of the selected fluorophores. Images were acquired using a Plan-Neofluar 40×/1.3 oil DIC objective and were analyzed with the Zeiss LSM software package. […]

The next test has as its system U937 cells. The test can be described thus: Phagocytosis of 2 μm fluorescent beads by PMA-differentiated U937 macrophages. Type of test: cell-based, human. The following applies: U937 monocytes exposed to 10^−8M PMA for 48 hours; undifferentiated monocytes could not phagocytose. The method, then: as §1
The phagocytosis activity of monocytes and macrophages cultured alone or co-cultured with A549 cells in three-dimensional was assessed based on the uptake of bacterial-sized 2 μm fluorescent […] beads (Fluoresbrite plain YG, Polysciences). The phagocytosis assay was performed as previously described (Gao et al., 2010).

With `CCCCCCCCCCCCCC(=O)O[C@@H]1[C@@H](C)[C@@]2(O)[C@@H](C=C(CO)C[C@]3(O)C(=O)C(C)=C[C@@H]23)[C@@H]2C(C)(C)[C@]12OC(C)=O` [PMA, phorbol 12-myristate 13-acetate], in the test with ICAM-1 on U937 cells, the “ICAM-1 labeling of differentiated macrophages” value was “strong ICAM-1 labeling”. The “phagocytosis of 2 μm fluorescent beads” value in the test on U937 cells is “engulfment of one-to-multiple beads”.
